Drawing on patent US10865211B2 (ENANTA PHARMACEUTICALS, INC, priority 2018, dated 2020), this text covers EC50 for twelve compounds.

As usually defined, the EC50 is the midpoint of the concentration-response curve. Low readings indicate an effect from little substance, high ones a need for much substance.

SMILES strings stand for the structures.

For the test, the system named is 2.2.15 cells. Briefly: Antiviral activity in 2.2.15 cells: reduction of viral product accumulation (qPCR, HBsAg/HBeAg ELISA). The note with it: Hepatitis B virus, 120 h, day 5 post treatment, concentration reducing viral product accumulation in cell lysates or supernatants by 50% relative to no drug controls. It is filed as cell-based, HBV. Here is the method: 2.2.15 cells are passaged upon attaining confluency in DMEM/F12 media in the presence of 10% FBS, Penn/Strep, and 250 ug/mL G418. Novel compounds are 5 fold serially diluted in DMSO and added to 96 well plates containing 35,000 cells/well at a 1:200 dilution so that the final concentration of DMSO is 0.5%. On day 5, post treatment cell lysates and supernatants are harvested for analysis.
Cells are lysed using Agilent Sidestep Lysis buffer, diluted 1:100 and quantified via quantitative real time PCR. Commercially available ELISA kits are used to quantitate the viral proteins HBsAg (Alpco) or HBeAg (US Biological) by following the manufacturer's recommended protocol after diluting samples to match the linear range of their respective assays. Irrespective of readout, compound concentrations that reduce viral product accumulation in the cell lysates or supernatants by 50% relative to no drug controls (EC50) are reported; EC50 ranges are as follows: A<0.1 μM; B 0.1-1 μM; C>1 μM.
On the technique in general: Real-time PCR tracks product formation cycle by cycle.
As for `CC(C)(C)[C@@H]1Cc2c(oc3cc(-c4ccsc4)ccc23)-c2cc(=O)c(C(=O)O)cn21` [Example 20, (S)-6-(tert-butyl)-2-oxo-10-(thiophen-3-yl)-6,7-dihydro-2H-benzofuro[2,3-a]quinolizine-3-carboxylic acid], the 50% effective concentration (EC50) was less than 0.1 µM. The result for `CC(C)(C)[C@@H]1Cc2c(oc3cc(-c4ccco4)ccc23)-c2cc(=O)c(C(=O)O)cn21` [Example 15, (S)-6-(tert-butyl)-10-(furan-2-yl)-2-oxo-6,7-dihydro-2H-benzofuro[2,3-a]quinolizine-3-carboxylic acid] reads less than 0.1 µM; that for `Cn1ccc(-c2ccc3c4c(oc3c2)-c2cc(=O)c(C(=O)O)cn2[C@H](C(C)(C)C)C4)n1` [Example 9, (S)-6-(tert-butyl)-10-(1-methyl-1H-pyrazol-3-yl)-2-oxo-6,7-dihydro-2H-benzofuro[2,3-a]quinolizine-3-carboxylic acid], less than 0.1 µM. `CC(C)(C)[C@@H]1Cc2c(oc3cc(-c4cccs4)ccc23)-c2cc(=O)c(C(=O)O)cn21` [Example 18, (S)-6-(tert-butyl)-2-oxo-10-(thiophen-2-yl)-6,7-dihydro-2H-benzofuro[2,3-a]quinolizine-3-carboxylic acid]: the concentration giving a half-maximal response (EC50) was less than 0.1 µM. The figure for `Cc1cccc2c3c(oc12)-c1cc(=O)c(C(=O)O)cn1[C@H](C(C)(C)C)C3` [Example 44, (S)-6-(tert-butyl)-11-methyl-2-oxo-6,7-dihydro-2H-benzofuro[2,3-a]quinolizine-3-carboxylic acid] is 0.1 to 1 µM. The figure for `CC(C)(C)[C@@H]1Cc2c(oc3c(N4CCCC4)cccc23)-c2cc(=O)c(C(=O)O)cn21` [Example 40, (S)-6-(tert-butyl)-2-oxo-11-(pyrrolidin-1-yl)-6,7-dihydro-2H-benzofuro[2,3-a]quinolizine-3-carboxylic acid] is less than 0.1 µM; for `CC(C)(C)[C@@H]1Cc2c(oc3cc(-c4cnsc4)ccc23)-c2cc(=O)c(C(=O)O)cn21` [Example 19, (S)-6-(tert-butyl)-10-(isothiazol-4-yl)-2-oxo-6,7-dihydro-2H-benzofuro[2,3-a]quinolizine-3-carboxylic acid] it is less than 0.1 µM. `CC(C)(C)[C@@H]1Cc2c(oc3cc(-c4cscn4)ccc23)-c2cc(=O)c(C(=O)O)cn21` [Example 22, (S)-6-(tert-butyl)-2-oxo-10-(thiazol-4-yl)-6,7-dihydro-2H-benzofuro[2,3-a]quinolizine-3-carboxylic acid]: the EC50 was less than 0.1 µM. In the case of `CC(C)[C@@H]1Cc2c(oc3cc(-c4cccs4)ccc23)-c2cc(=O)c(C(=O)O)cn21` [Example 75, (S)-6-isopropyl-2-oxo-10-(thiophen-2-yl)-6,7-dihydro-2H-benzofuro[2,3-a]quinolizine-3-carboxylic acid], the half-maximal effective concentration (EC50) is less than 0.1 µM. In turn, `Cn1ccc(-c2cccc3c4c(oc23)-c2c(F)c(=O)c(C(=O)O)cn2[C@H](C(C)(C)C)C4)n1` [Example 56, (S)-6-(tert-butyl)-1-fluoro-11-(1-methyl-1H-pyrazol-3-yl)-2-oxo-6,7-dihydro-2H-benzofuro[2,3-a]quinolizine-3-carboxylic acid] came in with a half-maximal effective concentration (EC50) of less than 0.1 µM. The result for `CC(C)(C)[C@@H]1Cc2c(oc3c(N4CCC(F)(F)C4)cccc23)-c2c(F)c(=O)c(C(=O)O)cn21` [Example 60, (S)-6-(tert-butyl)-11-(3,3-difluoropyrrolidin-1-yl)-1-fluoro-2-oxo-6,7-dihydro-2H-benzofuro[2,3-a]quinolizine-3-carboxylic acid] reads less than 0.1 µM; that for `CC(C)(C)[C@@H]1Cc2c(oc3cc(-c4ccoc4)ccc23)-c2cc(=O)c(C(=O)O)cn21` [Example 5, (S)-6-(tert-butyl)-10-(furan-3-yl)-2-oxo-6,7-dihydro-2H-benzofuro[2,3-a]quinolizine-3-carboxylic acid], less than 0.1 µM.
